Laboratory results: US7557111B2, “Substituted thieno[3,2-d]pyrimidines as CRF receptor antagonists” (Taisho Pharmaceutical Co., Ltd., priority 2004, dated 2009)
Structures can show the parent of a compound that is named as a salt.

melting point: 242 to 244 °C
SMILES: Cc1nc(N2CCC(CO)CC2)c2sc(C)c(-c3c(C)cc(Br)cc3C)c2n1 (as salt: HCl) [compound 1-004, {1-[7-(4-bromo-2,6-dimethyl-phenyl)-2,6-dimethyl-thieno[3,2-d]pyrimidin-4-yl]-piperidin-4-yl}-methanol hydrochloride]
